Article PMC8839448, “Novel Pyridothienopyrimidine Derivatives: Design, Synthesis and Biological Evaluation as Antimicrobial and Anticancer Agents” (Molecules, 2022)
≈ marks a conversion by molar mass, not a printed value. Where “and” joins values, the source holds several entries; their conditions need not be identical. Equal values may be shown once. Read-outs that look alike come from different tables or passages of the source.

Columns and labels:
[1] = tested on: Staphylococcus aureus 25923; test: In vitro antibacterial activity, MIC by broth dilution; format: cell-based; conditions: Gram +ve bacteria, read-out: MIC S. aureus
Bacillus subtilis 6633 = test: as above; format: cell-based; conditions: Gram +ve bacteria, read-out: MIC B. subtilis
Bacillus cereus 33018 = test: as above; format: cell-based; conditions: Gram +ve bacteria, read-out: MIC B. cereus
Escherichia coli 8739 = test: as above; format: cell-based; conditions: Gram −ve bacteria
[2] = tested on: Salmonella typhimurium 14028; test: as above; format: cell-based; conditions: Salmonella enterica, Gram −ve bacteria, read-out: MIC S. typhimurium
Candida albicans 10231 = test: In vitro antifungal activity, MIC by broth dilution; format: cell-based; conditions: yeast, read-out: MIC C. albicans
Candida tropicals 750 = test: as above; format: cell-based; conditions: yeast, read-out: MIC C. tropicals
[3] = tested on: Saccharomycese cerevisiae; test: as above; format: cell-based; conditions: Saccharomyces cerevisiae, yeast, read-out: MIC S. cerevisiae
Aspergillus flavus = test: as above; format: cell-based; conditions: fungi
[4] = tested on: Aspergillus niger EM77 (KF774181); test: as above; format: cell-based; conditions: fungi
[5] = tested on: hepatocellular carcinoma (HepG2) cells; test: Cytotoxicity, MTT assay; format: cell-based; conditions: Homo sapiens, read-out: Cytotoxic activity IC50 HepG2
[6] = tested on: breast cancer (MCF-7) cells; test: Cytotoxicity, MTT assay; format: cell-based, human; conditions: read-out: Cytotoxic activity IC50 MCF7
[7] = tested on: all the tested yeasts and fungi strains; test: Antifungal MIC, range over the panel; format: cell-based
[8] = Cytotoxicity against normal cells, MTT assay; conditions: human, WISH normal cells
Excerpt: The cytotoxicity was estimated as IC50 in μM for the tested compounds and the reference drug doxorubicin, and are listed in Table 3.

EGFR kinase = EGFR kinase (Homo sapiens, UniProt P00533); test: In vitro EGFR kinase inhibitory assay (Kinase-Glo MAX kit); conditions: for IC50: EGFR IC50, EGFR kinase assay kit, triplicate, ± SD
EGFR kinase, sequence (P00533 25-1210): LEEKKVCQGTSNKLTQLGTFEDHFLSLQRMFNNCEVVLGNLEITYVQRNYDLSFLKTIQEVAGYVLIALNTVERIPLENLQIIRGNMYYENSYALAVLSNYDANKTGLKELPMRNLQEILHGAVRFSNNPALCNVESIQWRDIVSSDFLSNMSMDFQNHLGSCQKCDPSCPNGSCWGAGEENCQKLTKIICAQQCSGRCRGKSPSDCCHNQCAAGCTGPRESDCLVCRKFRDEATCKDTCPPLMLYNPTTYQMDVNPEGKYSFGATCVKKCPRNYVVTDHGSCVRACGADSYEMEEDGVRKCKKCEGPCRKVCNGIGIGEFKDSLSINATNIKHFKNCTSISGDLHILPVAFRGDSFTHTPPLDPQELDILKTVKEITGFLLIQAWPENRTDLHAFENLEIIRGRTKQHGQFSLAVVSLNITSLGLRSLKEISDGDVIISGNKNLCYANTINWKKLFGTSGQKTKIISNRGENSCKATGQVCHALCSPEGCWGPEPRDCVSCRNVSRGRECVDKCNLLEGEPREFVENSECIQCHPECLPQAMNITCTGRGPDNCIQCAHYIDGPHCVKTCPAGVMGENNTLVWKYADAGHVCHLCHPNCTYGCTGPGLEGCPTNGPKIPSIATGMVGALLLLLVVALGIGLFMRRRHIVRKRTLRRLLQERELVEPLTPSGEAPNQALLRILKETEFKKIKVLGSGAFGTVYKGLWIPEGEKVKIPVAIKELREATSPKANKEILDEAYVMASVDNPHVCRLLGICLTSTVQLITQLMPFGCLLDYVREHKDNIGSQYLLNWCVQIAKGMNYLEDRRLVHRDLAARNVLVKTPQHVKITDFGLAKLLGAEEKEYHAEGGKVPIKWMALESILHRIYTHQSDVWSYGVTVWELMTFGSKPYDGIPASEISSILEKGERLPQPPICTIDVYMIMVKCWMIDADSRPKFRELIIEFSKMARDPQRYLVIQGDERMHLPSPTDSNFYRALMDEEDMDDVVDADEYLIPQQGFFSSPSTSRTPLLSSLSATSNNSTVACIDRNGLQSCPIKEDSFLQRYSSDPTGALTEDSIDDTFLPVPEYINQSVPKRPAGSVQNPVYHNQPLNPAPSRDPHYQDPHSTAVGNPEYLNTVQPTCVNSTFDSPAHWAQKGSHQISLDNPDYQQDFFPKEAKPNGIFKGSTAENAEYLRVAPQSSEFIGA
Description: The assay kit is designed to measure EGFR Kinase activity for screening applications using Kinase-Glo® MAX as a detection reagent. The luminescence was measured using a microplate reader (Infinite M200 microplate reader, Tecan, Männedorf, Switzerland) [54]. All assays were performed in triplicate and the relative inhibition (%) of inhibitors was then calculated via comparison with the control with no inhibitor.
In vitro EGFR kinase assay
The assay Kit is designed to measure EGFR Kinase
activity for screening applications using Kinase-Glo® MAX as a detection reagent
using Kinase-Glo® MAX as a detection reagent. Thaw 5x Kinase Buffer 1: ATP and
PTK substrate Poly (Glu:Tyr 4:1) (10 mg/ml) kinase was provided. Then the master
mixture was prepared: N wells x (6 μl 5x Kinase Buffer 1 + 1 µl ATP (500 µM) + 1
µl PTK substrate Poly (Glu:Tyr 4:1) (10 mg/ml)+ 17 μl water) and 25 μl of the
mixture was added to every well. The tested compounds were dissolved in DMSO,
well labeled as “Positive Control", 5 μl of the same solution of the reference drug
erlotinib and “Blank”, 5 μl of the same solution without inhibitor (Inhibitor buffer).
ml of 1x Kinase Buffer 1) was prepared by mixing 600 µl of 5x Kinase Buffer 1 with
The reaction initiated by adding 20 µl of diluted EGFR enzyme to the wells designated “Positive Control” and "Test Inhibitor Control". Incubate at 30°C for 40
minutes. Thaw Kinase-G lo Max reagent. After the 40 minute reaction, 50 µl of
Kinase-Glo Max reagent was added to each well. The plate was covered with
aluminum foil and incubate at room temperature for 15 minutes. Then the
luminescence was measured using the microplate reader (Infinite M200 microplate
reader, Tecan, Männedorf, Switzerland). All assays were performed in triplicate. The
relative inhibition (%) of inhibitors were then calculated compared to the control with
no inhibitor. Then the IC50 values and their standard deviation (SD) for the tested
compounds and the reference drug were determined in (nM).

five bacterial strains = test: Antibacterial MIC, range over the panel; format: cell-based

Row | SMILES | MIC [1] [µg/mL] | MIC (Bacillus subtilis 6633) [µg/mL] | MIC (Bacillus cereus 33018) [µg/mL] | MIC (Escherichia coli 8739) [µg/mL] | MIC [2] [µg/mL] | MIC (Candida albicans 10231) [µg/mL] | MIC (Candida tropicals 750) [µg/mL] | MIC [3] [µg/mL] | MIC (Aspergillus flavus) [µg/mL] | MIC [4] [µg/mL] | melting point [°C] | MIC range against the tested yeasts and fungi strains [7] [µg/mL] | IC50 (EGFR kinase) | Fold more potent than erlotinib (EGFR inhibition) (EGFR kinase; relative to erlotinib) [fold] | IC50 [5] [µM] | IC50 ([6]; Homo sapiens, MCF7, MCF7 cells) [µM] | IC50 [8] [µM] | IC50 ([6]; MCF7 cells) [µM] | MIC range against the tested bacterial strains (five bacterial strains) [µg/mL]
1 | Cc1cc(C)c2c(n1)sc1c(=O)[nH]c(=O)[nH]c12 [Compound 2a, 7,9-Dimethylpyrido[3′,2′:4,5]thieno[3,2-d]pyrimidine-2,4(1H,3H)-dione] | > 128 | > 128 | 64 (≈ 259 µM) | > 128 | > 128 | 128 (≈ 518 µM) | 128 (≈ 518 µM) | 16 (≈ 64.7 µM) | > 128 | > 128 | – | – | – | – | 56.6 ± 3.64 | 64.3 ± 2.91 | – | – | –
2 | Cc1ccc(-c2cc(-c3ccccc3)nc3sc4c(=O)[nH]c(=O)[nH]c4c23)cc1 [Compound 2b, 7-Phenyl-9-(p-tolyl)pyrido[3′,2′:4,5]thieno[3,2-d]pyrimidine-2,4(1H,3H)-dione] | 64 (≈ 166 µM) | 128 (≈ 332 µM) | 64 (≈ 166 µM) | 128 (≈ 332 µM) | 64 (≈ 166 µM) | 64 (≈ 166 µM) | 32 (≈ 83 µM) | 32 (≈ 83 µM) | 32 (≈ 83 µM) | 32 (≈ 83 µM) | 316 to 317 | – | – | – | 33.2 ± 1.79 | 42.4 ± 2.24 | – | – | –
3 | Cc1ccc(-c2cc(-c3ccccc3)nc3sc4c(c23)NC2(CCCCC2)NC4=O)cc1 [Compound 6d, 7′-Phenyl-9′-(p-tolyl)-1′H-spiro[cyclohexane-1,2′-pyrido[3′,2′:4,5]thieno[3,2-d]pyrimidin]-4′(3′H)-one] | 8 (≈ 18.2 µM) | 32 (≈ 72.8 µM) | 8 (≈ 18.2 µM) | 32 (≈ 72.8 µM) | 32 (≈ 72.8 µM) | 64 (≈ 146 µM) | 64 (≈ 146 µM) | 32 (≈ 72.8 µM) | 32 (≈ 72.8 µM) | 16 (≈ 36.4 µM) | 263 | – | – | – | 4.45 ± 0.22 | 21.7 ± 0.7 | – | – | 8 to 32
4 | Cc1ccc(-c2cc(-c3ccccc3)nc3sc4c(c23)NC2(CCCC2)NC4=S)cc1 [Compound 7b, 7′-Phenyl-9′-(p-tolyl)-1′H-spiro[cyclopentane-1,2′-pyrido[3′,2′:4,5]thieno[3,2-d]pyrimidine]-4′(3′H)-thione] | 64 (≈ 145 µM) | 64 (≈ 145 µM) | 64 (≈ 145 µM) | 64 (≈ 145 µM) | 128 (≈ 290 µM) | 64 (≈ 145 µM) | 64 (≈ 145 µM) | 32 (≈ 72.5 µM) | 64 (≈ 145 µM) | 128 (≈ 290 µM) | – | – | – | – | 39.7 ± 1.89 | 41.6 ± 2.2 | – | – | 64 to 128
5 | Cc1cc(C)c2c3c(sc2n1)C(SCC(N)=O)=NC1(CCCCC1)N3 [Compound 8a, 2-((7′,9′-Dimethyl-1′H-spiro[cyclohexane-1,2′-pyrido[3′,2′:4,5]thieno[3,2-d]pyrimidin]-4′-yl)sulfanyl)acetamide] | 8 (≈ 21.4 µM) | 16 (≈ 42.7 µM) | 8 (≈ 21.4 µM) | 32 (≈ 85.4 µM) | 32 (≈ 85.4 µM) | 64 (≈ 171 µM) | 16 (≈ 42.7 µM) | 16 (≈ 42.7 µM) | 16 (≈ 42.7 µM) | 16 (≈ 42.7 µM) | 160 to 161 | – | – | – | 6.78 ± 0.73 | 20.9 ± 1.46 | – | – | 8 to 32
6 | Cc1cc(C)c2c3c(sc2n1)C(SCC1CO1)=NC1(CCCCC1)N3 (centres unmarked) [Compound 9a, 7′,9′-Dimethyl-4′-((oxiran-2-ylmethyl)sulfanyl)-1′H-spiro[cyclohexane-1,2′-pyrido[3′,2′:4,5]thieno[3,2-d]pyrimidine]] | 16 (≈ 42.8 µM) | 32 (≈ 85.7 µM) | 8 (≈ 21.4 µM) | 32 (≈ 85.7 µM) | 16 (≈ 42.8 µM) | 16 (≈ 42.8 µM) | 32 (≈ 85.7 µM) | 32 (≈ 85.7 µM) | 16 (≈ 42.8 µM) | 64 (≈ 171 µM) | 155 | – | – | – | 4.88 ± 0.65 | 23.6 ± 1.24 | – | – | 8 to 32
7 | COc1cccc2c1C(=O)c1c(O)c3c(c(O)c1C2=O)C[C@@](O)(C(=O)CO)C[C@@H]3O[C@H]1C[C@H](N)[C@H](O)[C@H](C)O1 [Doxorubicin, doxorubicin, reference compound] | – | – | – | – | – | – | – | – | – | – | – | – | – | – | 2.85 ± 0.21 | 3.58 ± 0.33 | 432 ± 19.3 | – | –

Continued, in another order:

Row | MIC [1] [µg/mL] | MIC (Bacillus subtilis 6633) [µg/mL] | MIC (Bacillus cereus 33018) [µg/mL] | MIC (Escherichia coli 8739) [µg/mL] | MIC [2] [µg/mL] | MIC (Candida albicans 10231) [µg/mL] | MIC (Candida tropicals 750) [µg/mL] | MIC [3] [µg/mL] | MIC (Aspergillus flavus) [µg/mL] | MIC [4] [µg/mL] | melting point [°C] | MIC range against the tested yeasts and fungi strains [7] [µg/mL] | IC50 (EGFR kinase) | Fold more potent than erlotinib (EGFR inhibition) (EGFR kinase; relative to erlotinib) [fold] | SMILES | IC50 [5] [µM] | IC50 ([6]; Homo sapiens, MCF7, MCF7 cells) [µM] | IC50 [8] [µM] | IC50 ([6]; MCF7 cells) [µM] | MIC range against the tested bacterial strains (five bacterial strains) [µg/mL]
8 | 32 (≈ 75.8 µM) | 8 (≈ 18.9 µM) | 32 (≈ 75.8 µM) | 16 (≈ 37.9 µM) | 32 (≈ 75.8 µM) | 32 (≈ 75.8 µM) | 16 (≈ 37.9 µM) | 64 (≈ 152 µM) | 32 (≈ 75.8 µM) | 16 (≈ 37.9 µM) | 220 | – | – | – | Cc1ccc(-c2cc(-c3ccccc3)nc3sc4c(Cl)nc(Cl)nc4c23)cc1 [Compound 3b, 2,4-Dichloro-7-phenyl-9-(p-tolyl)pyrido[3′,2′:4,5]thieno[3,2-d]pyrimidine] | 11.3 ± 0.65 | 24.7 ± 1.32 | – | – | –
9 | 4 (≈ 14.3 µM) | 8 (≈ 28.6 µM) | 4 (≈ 14.3 µM) | 8 (≈ 28.6 µM) | 16 (≈ 57.2 µM) | 16 (≈ 57.2 µM) | 16 (≈ 57.2 µM) | 8 (≈ 28.6 µM) | 8 (≈ 28.6 µM) | 8 (≈ 28.6 µM) | 330 to 331 | 4 to 16 | 27 nM and 53.6 nM | 1.5 | Cc1cc(C)c2c(n1)sc1c(=O)[nH]c(CCl)nc12 [Compound 4a, 2-(Chloromethyl)-7,9-dimethylpyrido[3′,2′:4,5]thieno[3,2-d]pyrimidin-4(3H)-one] | 2.99 ± 0.15 | 15.4 ± 0.45 | 460 ± 11.1 | – | –
10 | 8 (≈ 19.1 µM) | 128 (≈ 306 µM) | 16 (≈ 38.3 µM) | 128 (≈ 306 µM) | 128 (≈ 306 µM) | 8 (≈ 19.1 µM) | 16 (≈ 38.3 µM) | 8 (≈ 19.1 µM) | 16 (≈ 38.3 µM) | 16 (≈ 38.3 µM) | 310 | 4 to 16 | – | – | Cc1ccc(-c2cc(-c3ccccc3)nc3sc4c(=O)[nH]c(CCl)nc4c23)cc1 [Compound 4b, 2-(Chloromethyl)-7-phenyl-9-(p-tolyl)pyrido[3′,2′:4,5]thieno[3,2-d]pyrimidin-4(3H)-one] | 36.5 ± 1.82 | 43.3 ± 2.28 | – | – | –
11 | 8 (≈ 16.6 µM) | 8 (≈ 16.6 µM) | 16 (≈ 33.2 µM) | 32 (≈ 66.4 µM) | 32 (≈ 66.4 µM) | 64 (≈ 133 µM) | 16 (≈ 33.2 µM) | 16 (≈ 33.2 µM) | 32 (≈ 66.4 µM) | 64 (≈ 133 µM) | 260 to 261 | – | – | – | Cc1ccc(-c2cc(-c3ccccc3)nc3sc4c(=O)[nH]c(CN5CCN(C)CC5)nc4c23)cc1 [Compound 5b, 2-((4-Methylpiperazin-1-yl)methyl)-7-phenyl-9-(p-tolyl)pyrido[3′,2′:4,5]thieno[3,2-d]pyrimidin-4(3H)-one] | 10.2 ± 0.29 | 21.1 ± 1.16 | – | – | –
12 | 4 (≈ 9.4 µM) | 8 (≈ 18.8 µM) | 16 (≈ 37.6 µM) | 8 (≈ 18.8 µM) | 16 (≈ 37.6 µM) | 8 (≈ 18.8 µM) | 8 (≈ 18.8 µM) | 8 (≈ 18.8 µM) | 16 (≈ 37.6 µM) | 8 (≈ 18.8 µM) | 210 | 4 to 16 | 53.19 ± 0.46 nM | – | Cc1ccc(-c2cc(-c3ccccc3)nc3sc4c(c23)NC2(CCCC2)NC4=O)cc1 [Compound 6b, 7′-Phenyl-9′-(p-tolyl)-1′H-spiro[cyclopentane-1,2′-pyrido[3′,2′:4,5]thieno[3,2-d]pyrimidin]-4′(3′H)-one] | 2.75 ± 0.13 | 9.89 ± 0.55 | 395 ± 10.2 | 9.89 ± 0.55 | –
13 | 4 (≈ 13.2 µM) | > 128 | 8 (≈ 26.4 µM) | 8 (≈ 26.4 µM) | 16 (≈ 52.7 µM) | 16 (≈ 52.7 µM) | 16 (≈ 52.7 µM) | 8 (≈ 26.4 µM) | 16 (≈ 52.7 µM) | 16 (≈ 52.7 µM) | – | 4 to 16 | – | – | Cc1cc(C)c2c3c(sc2n1)C(=S)NC1(CCCC1)N3 [Compound 7a, 7′,9′-Dimethyl-1′H-spiro[cyclopentane-1,2′-pyrido[3′,2′:4,5]thieno[3,2-d]pyrimidine]-4′(3′H)-thione] | 26.1 ± 1.89 | 28.1 ± 0.92 | – | – | –
14 | 32 (≈ 101 µM) | 32 (≈ 101 µM) | 8 (≈ 25.2 µM) | 32 (≈ 101 µM) | 32 (≈ 101 µM) | 16 (≈ 50.4 µM) | 8 (≈ 25.2 µM) | 8 (≈ 25.2 µM) | 4 (≈ 12.6 µM) | 16 (≈ 50.4 µM) | 201 | 4 to 16 | – | – | Cc1cc(C)c2c3c(sc2n1)C(=S)NC1(CCCCC1)N3 [Compound 7c, 7′,9′-Dimethyl-1′H-spiro[cyclohexane-1,2′-pyrido[3′,2′:4,5]thieno[3,2-d]pyrimidine]-4′(3′H)-thione] | 10.3 ± 0.31 | 20.9 ± 0.93 | – | – | –
15 | 4 (≈ 8.78 µM) | 64 (≈ 140 µM) | 64 (≈ 140 µM) | 32 (≈ 70.2 µM) | 32 (≈ 70.2 µM) | 32 (≈ 70.2 µM) | 64 (≈ 140 µM) | 32 (≈ 70.2 µM) | 64 (≈ 140 µM) | 64 (≈ 140 µM) | 178 to 179 | – | – | – | Cc1ccc(-c2cc(-c3ccccc3)nc3sc4c(c23)NC2(CCCCC2)NC4=S)cc1 [Compound 7d, 7′-Phenyl-9′-(p-tolyl)-1′H-spiro[cyclohexane-1,2′-pyrido[3′,2′:4,5]thieno[3,2-d]pyrimidine]-4′(3′H)-thione] | 23.2 ± 0.35 | 26.6 ± 1.62 | – | – | –
